PubChem BioAssay (NCI)
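These data come from cells grown in 96-well plates and exposed to compound for 48 hours at five concentrations. TGI is the concentration that stops growth completely.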

Assays:
Assay in all cases: growth of human tumour cells (NCI), 48 h
UO-31 renal = tested on: UO-31 renal
OVCAR-3 ovarian = tested on: OVCAR-3 ovarian
LOX IMVI melanoma = tested on: LOX IMVI melanoma
MOLT-4 leukemia = tested on: MOLT-4 leukemia
HCC-2998 colon = tested on: HCC-2998 colon
A498 renal = tested on: A498 renal
MDA-MB-435 = tested on: MDA-MB-435
COLO 205 colon = tested on: COLO 205 colon
SK-MEL-28 melanoma = tested on: SK-MEL-28 melanoma
OVCAR-5 ovarian = tested on: OVCAR-5 ovarian
SW-620 colon = tested on: SW-620 colon
CCRF-CEM leukemia = tested on: CCRF-CEM leukemia
CAKI-1 renal = tested on: CAKI-1 renal
MDA-MB-231 breast = tested on: MDA-MB-231 breast
SN12C renal = tested on: SN12C renal
HT29 colon = tested on: HT29 colon
UACC-257 melanoma = tested on: UACC-257 melanoma
HS 578T breast = tested on: HS 578T breast
SF-295 CNS = tested on: SF-295 CNS
HOP-92 NSCLC = tested on: HOP-92 NSCLC
UACC-62 melanoma = tested on: UACC-62 melanoma
HOP-62 NSCLC = tested on: HOP-62 NSCLC
M14 melanoma = tested on: M14 melanoma
SK-MEL-5 melanoma = tested on: SK-MEL-5 melanoma
RXF 393 renal = tested on: RXF 393 renal
SNB-75 CNS = tested on: SNB-75 CNS
TK-10 renal = tested on: TK-10 renal
MDA-N = tested on: MDA-N
OVCAR-4 ovarian = tested on: OVCAR-4 ovarian
786-0 renal = tested on: 786-0 renal
NCI/ADR-RES ovarian = tested on: NCI/ADR-RES ovarian
HCT-116 colon = tested on: HCT-116 colon
BT-549 breast = tested on: BT-549 breast
NCI-H460 lung = tested on: NCI-H460 lung
DU-145 prostate = tested on: DU-145 prostate
EKVX NSCLC = tested on: EKVX NSCLC
SK-OV-3 ovarian = tested on: SK-OV-3 ovarian
ACHN renal = tested on: ACHN renal
SNB-19 CNS = tested on: SNB-19 CNS
MCF7 breast = tested on: MCF7 breast
MALME-3M melanoma = tested on: MALME-3M melanoma
K-562 leukemia = tested on: K-562 leukemia
KM12 colon = tested on: KM12 colon
A549 NSCLC = tested on: A549 NSCLC
T-47D breast = tested on: T-47D breast
HL-60(TB) leukemia = tested on: HL-60(TB) leukemia
SK-MEL-2 melanoma = tested on: SK-MEL-2 melanoma
PC-3 prostate = tested on: PC-3 prostate
IGROV1 ovarian = tested on: IGROV1 ovarian
HCT-15 colon = tested on: HCT-15 colon
SF-268 CNS = tested on: SF-268 CNS
RPMI-8226 leukemia = tested on: RPMI-8226 leukemia
NCI-H23 lung = tested on: NCI-H23 lung
SF-539 CNS = tested on: SF-539 CNS
U251 CNS = tested on: U251 CNS
OVCAR-8 ovarian = tested on: OVCAR-8 ovarian
NCI-H522 lung = tested on: NCI-H522 lung

`CCOC(=O)C1=C(C)NC(C)=C(C(=O)OCC)C1c1ccc(Cl)cc1` was tested, and the TGI (UO-31 renal) was 36.4 µM, the TGI (OVCAR-3 ovarian) was 30.5 µM and the TGI (LOX IMVI melanoma) was 34.4 µM. For the same compound, the TGI (MOLT-4 leukemia) was 24.8 µM, the TGI (HCC-2998 colon) was 30.4 µM and the TGI (A498 renal) was 31.2 µM. It also gave a TGI (MDA-MB-435) of 28.9 µM, a TGI (COLO 205 colon) of 32.4 µM and a TGI (SK-MEL-28 melanoma) of 37 µM. For the same compound, the TGI (OVCAR-5 ovarian) was 27 µM, the TGI (SW-620 colon) was 36.2 µM and the TGI (CCRF-CEM leukemia) was 28.3 µM. It also gave a TGI (CAKI-1 renal) of 30.7 µM, a TGI (MDA-MB-231 breast) of 33.6 µM and a TGI (SN12C renal) of 34.5 µM. It also gave a TGI (HT29 colon) of 24.8 µM, a TGI (UACC-257 melanoma) of 27.4 µM and a TGI (HS 578T breast) of 42.2 µM. It also gave a TGI (SF-295 CNS) of 26.3 µM, a TGI (HOP-92 NSCLC) of 24 µM and a TGI (UACC-62 melanoma) of 26.7 µM. The TGI (HOP-62 NSCLC) was 30.8 µM, the TGI (M14 melanoma) was 31 µM and the TGI (SK-MEL-5 melanoma) was 28.1 µM. For the same compound, the TGI (RXF 393 renal) was 28.3 µM, the TGI (SNB-75 CNS) was 33.5 µM and the TGI (TK-10 renal) was 29.2 µM. For the same compound, the TGI (MDA-N) was 26.9 µM, the TGI (OVCAR-4 ovarian) was 26.9 µM and the TGI (786-0 renal) was 26.5 µM. For the same compound, the TGI (NCI/ADR-RES ovarian) was 48.1 µM, the TGI (HCT-116 colon) was 22 µM and the TGI (BT-549 breast) was 32.7 µM. The TGI (NCI-H460 lung) was 19.9 µM, the TGI (DU-145 prostate) was 31.9 µM and the TGI (EKVX NSCLC) was 31.3 µM. It also gave a TGI (SK-OV-3 ovarian) of 31.7 µM, a TGI (ACHN renal) of 30.8 µM and a TGI (SNB-19 CNS) of 31.3 µM. The TGI (MCF7 breast) was 38.7 µM, the TGI (MALME-3M melanoma) was 34.6 µM and the TGI (K-562 leukemia) was 44.6 µM. It also gave a TGI (KM12 colon) of 40.4 µM, a TGI (A549 NSCLC) of 34.3 µM and a TGI (T-47D breast) of 35.2 µM. For the same compound, the TGI (HL-60(TB) leukemia) was 8.15 µM, the TGI (SK-MEL-2 melanoma) was 34.5 µM and the TGI (PC-3 prostate) was 33.9 µM. The TGI (IGROV1 ovarian) was 30.9 µM, the TGI (HCT-15 colon) was 41.6 µM and the TGI (SF-268 CNS) was 34.6 µM. The TGI (RPMI-8226 leukemia) was 52.8 µM, the TGI (NCI-H23 lung) was 32.1 µM and the TGI (SF-539 CNS) was 37.3 µM. It also gave a TGI (U251 CNS) of 34.6 µM, a TGI (OVCAR-8 ovarian) of 41.4 µM and a TGI (NCI-H522 lung) of 32.2 µM.
